Assay results published in patent US20040266811A1, “Methods for inducing regeneration, remyelination, and hypermyelination of nervous tissue” (priority 2002, published 2004).
“Also recorded” adds a separate entry of the source.

Tests used:
[1] = system: purified sensory neurons from DRG; assay: Neurite outgrowth in purified (neuron-enriched) sensory neuron cultures; type: cell-based, E18 C57B1/6 mice; settings: 1 μM GM-284, 6 days
Procedure: To generate neuron-enriched DRG cultures, DRGs were isolated from embryonic (E18) C57B1/6 mice, and processed in dissection media containing Hank's CMF saline, with 0.05% collagenase and 0.25% trypsin, for 30 min at 37° C. Neurons were obtained by trituration of ganglia with fire-polished Pasteur pipettes of decreasing diameter. Thereafter, the cellular suspension was washed twice in Dulbecco's modified Eagle medium supplemented with 10% fetal calf serum and 2% glucose. Freshly triturated neurons were incubated in 10% FCS-DMEM supplemented with 5-fluorouracil (Sigma, F-0503) and uridine (Sigma, U3003) for 48 h to remove non-neuronal proliferating cells, in the presence of either 100 ng/ml NGF or 1 μM GM-284. After 48 h, cultures were continued with these agents, but without mitotic inhibitors, for an additional 6 days.
DRG explants are complex tissues, containing both Schwann cells and neurons. Accordingly, it is possible that GM-284 acts to promote neurite outgrowth directly, by acting on neurons, or indirectly, by acting on adjacent Schwann cells, which then act to promote neuritogenesis. To differentiate these possibilities, sensory neurons from DRG were purified as described (Wood et al., Studies of the initiation of myelination by Schwann cells. Ann. NY Acad. Sci., 605:1-14, 1990), and contaminating Schwann cells were removed by treatment of the cultures with anti-mitotic drugs.

Schwann cells = assay: cDNA-array analysis of Schwann cell gene expression; type: cell-based, Sprague-Dawley rats
Procedure: To generate primary Schwann cells, neonatal Sprague-Dawley rats were sacrificed by decapitation, and 2-cm segments (approximately) of sciatic nerve were excised and placed in ice-cold PBS. Following removal of the epineurium, the nerves were pooled and placed in Hank's balanced salt solution containing 0.1% trypsin for 30 min at 37° C. Subsequently, partially-dissociated cells were plated onto polylysine/laminin-coated tissue culture plates, and enriched Schwann cells were further purified by the activation of anti-Thy 1.1 monoclonal antibodies and complement, in order to lyse proliferating fibroblasts (Wu and Weinstein, “Isolation and Purification of Primary Schwann Cells”, in Current Protocols in Neuroscience, Crawley et al., eds. (New York, N.Y.: John Wiley & Sons, 1999). The Schwann cells were maintained in DMEM containing 10% FCS supplemented with 50 ng/ml GGF and 2 μg/ml forskolin. However, these latter compounds were removed 48 h prior to the addition of immunophilin ligands. For the Schwann cell/PC12 co-cultures, monolayers of Schwann cells were prepared and overlaid with pCX-expressing PC12 cells, and cultures were incubated in the presence of either 100 ng/ml NGF or 1 μg/ml GM-284 for 48 h.
To test the former hypothesis, the inventors starved Schwann cells of growth factor for 48 h, then treated the cells for either 4 h or 48 h with a 1-μM dose of GM-284. RNA was harvested from the treated cells and from control (vehicle-treated) Schwann cells, and then prepared for cDNA-array analysis. Experimental details of the preparation of the RNA, and the methods for conducting the hybridization, washing, and scanning, are posted at the following http website: //sequence.aecom.yu.edu/bioinf/funcgenomic.html.
Total RNA was isolated, and prepared for cDNA microarray analysis as described (Peng et al., Microarray analysis of global changes in gene expression during cardiac myocyte differentiation. Physiol. Genomics, 9(3):145-55, 2002).

[2] = system: SCIP and Brn-5 expression in Schwann cells; assay: RNA (Northern) blot for SCIP and Brn-5 in Schwann cells; type: cell-based, Sprague-Dawley rats; settings: 1 μM GM-284, 48 h, growth-factor-starved Schwann cells
Procedure: To further assess the ability of GM-284 to regulate these genes, Schwann cells were maintained in DMEM containing FCS, and without forskolin or GGF, for 48 h, to rest the cells. Thereafter, 1 μM GM-284 was added for an additional 48 h. Total RNA was isolated, run on a denaturing agarose gel, transferred to a nylon filter, and hybridized with probes complimentary to either SCIP (panel a) or Brn-5 (panel b). Cyclophilin RNA was probed as a loading control.
20 μg of total RNA was prepared as previously described (Wu et al., The POU gene brn-5 is induced by neuregulin and is restricted to myelinating Schwann cells. Mol. Cell Neurosci., 17:683-95, 2001). Thereafter, total RNA was separated on 1% MOPS-formaldehyde agarose gels, transferred to MAGNA nylon transfer membrane (MSI), UV cross-linked (120 mJ/cm 2) using a UV crosslinker (FB-UVXL-1000, Fisher Biotech), and hybridized with ^32P-dCTP random-labeled (RTS RadPrime DNA Labeling System, Gibco BRL), probes purified by Sephadex G-50 column (Pharmacia, Peapack, N.J.).
The Brn-5 probe contains the rat Brn-5 coding region (generated by PCR), and was kindly provided by Dr. Bogi Andersen at the University of California at San Diego. This probe is 93% identical to the mouse Brn-5 mRNA. The SCIP probe was a 1.10-kb SmaI cDNA fragment from mouse SCIP DNA. […]

calcineurin = settings: cited from earlier work

SMILES: CCC(C)(C)C(=O)C(=O)N1CCC[C@H]1c1nnc([C@@H]2CCCN2C(=O)C(=O)C(C)(C)CC)o1 [GM-284]
- neurite outgrowth in purified neuronal cultures [1]: complete failure to elaborate processes; also recorded: failed to promote axonogenesis; also recorded: no neurite outgrowth
- ESTs upregulated (Schwann cells; 1 μM GM-284, 4 hours): 15
- Known genes upregulated (Schwann cells; 1 μM GM-284, 4 hours): 11
- Selected upregulated genes (Schwann cells; 1 μM GM-284, 4 hours): Cytokeratin 19 and Fibrillin 2 (fbn2) and IFNγ inducible and CD14 and Estradiol dehydrogenase
- Total upregulated genes (Schwann cells; 1 μM GM-284, 4 hours): 26
- ESTs upregulated (Schwann cells; 1 μM GM-284, 48 hours): 77
- Known genes upregulated (Schwann cells; 1 μM GM-284, 48 hours): 32
- Total upregulated genes (Schwann cells; 1 μM GM-284, 48 hours): 109
- SCIP and Brn-5 RNA expression relative to vehicle-treated cells [2]: significantly induced; also recorded: induces Schwann cell expression of SCIP (Oct-6) and Brn-5
- binding to / inhibition of calcineurin (calcineurin): neither bind to, nor inhibit, calcineurin
